Measurements reported in article PMC7366380, “Discovery of a Potent and Selective Covalent Inhibitor and Activity-Based Probe for the Deubiquitylating Enzyme UCHL1, with Antifibrotic Activity” (Journal of the American Chemical Society, 2020).
“And” between values parts separate entries of the source, which are not always exact repeats. Equal entries are not always repeated.

Key:
Assay in all cases: In-cell proteome-wide competitive ABPP, HEK293: other DUBs and proteins
[1] = molecular target: T1, DUBs and other proteins in HEK293 cells (Homo sapiens, UniProt Q53GS9); conditions: replicates A-C; for Log2 reporter intensity values: USP39: competition with ABP 2, DMSO substract (FC); for Log2 reporter intensity values: USP39, DMSO subtracted
T1 sequence (Q53GS9 1-565): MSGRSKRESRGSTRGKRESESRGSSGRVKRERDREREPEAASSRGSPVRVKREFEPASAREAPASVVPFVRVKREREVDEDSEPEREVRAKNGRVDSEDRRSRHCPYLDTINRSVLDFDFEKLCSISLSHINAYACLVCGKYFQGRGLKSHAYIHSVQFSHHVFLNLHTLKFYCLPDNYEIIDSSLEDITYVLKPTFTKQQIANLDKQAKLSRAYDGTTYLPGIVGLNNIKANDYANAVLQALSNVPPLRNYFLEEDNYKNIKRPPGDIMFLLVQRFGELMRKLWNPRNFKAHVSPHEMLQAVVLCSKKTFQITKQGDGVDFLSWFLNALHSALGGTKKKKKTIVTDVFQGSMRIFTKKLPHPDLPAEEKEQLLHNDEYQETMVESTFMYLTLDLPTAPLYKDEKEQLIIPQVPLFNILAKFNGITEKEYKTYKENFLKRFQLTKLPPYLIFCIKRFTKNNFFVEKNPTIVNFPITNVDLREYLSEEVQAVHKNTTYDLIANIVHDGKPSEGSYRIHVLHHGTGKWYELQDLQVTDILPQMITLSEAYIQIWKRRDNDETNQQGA

[2] = molecular target: DUBs and other proteins in HEK293 cells (Homo sapiens, UniProt Q93009); conditions: replicates A-C; for Log2 reporter intensity values: USP7: competition with ABP 2, DMSO substract (FC); for Log2 reporter intensity values: USP7, DMSO subtracted
Sequence of DUBs and other proteins in HEK293 cells (Homo sapiens, UniProt Q93009) (Q93009 whole entry): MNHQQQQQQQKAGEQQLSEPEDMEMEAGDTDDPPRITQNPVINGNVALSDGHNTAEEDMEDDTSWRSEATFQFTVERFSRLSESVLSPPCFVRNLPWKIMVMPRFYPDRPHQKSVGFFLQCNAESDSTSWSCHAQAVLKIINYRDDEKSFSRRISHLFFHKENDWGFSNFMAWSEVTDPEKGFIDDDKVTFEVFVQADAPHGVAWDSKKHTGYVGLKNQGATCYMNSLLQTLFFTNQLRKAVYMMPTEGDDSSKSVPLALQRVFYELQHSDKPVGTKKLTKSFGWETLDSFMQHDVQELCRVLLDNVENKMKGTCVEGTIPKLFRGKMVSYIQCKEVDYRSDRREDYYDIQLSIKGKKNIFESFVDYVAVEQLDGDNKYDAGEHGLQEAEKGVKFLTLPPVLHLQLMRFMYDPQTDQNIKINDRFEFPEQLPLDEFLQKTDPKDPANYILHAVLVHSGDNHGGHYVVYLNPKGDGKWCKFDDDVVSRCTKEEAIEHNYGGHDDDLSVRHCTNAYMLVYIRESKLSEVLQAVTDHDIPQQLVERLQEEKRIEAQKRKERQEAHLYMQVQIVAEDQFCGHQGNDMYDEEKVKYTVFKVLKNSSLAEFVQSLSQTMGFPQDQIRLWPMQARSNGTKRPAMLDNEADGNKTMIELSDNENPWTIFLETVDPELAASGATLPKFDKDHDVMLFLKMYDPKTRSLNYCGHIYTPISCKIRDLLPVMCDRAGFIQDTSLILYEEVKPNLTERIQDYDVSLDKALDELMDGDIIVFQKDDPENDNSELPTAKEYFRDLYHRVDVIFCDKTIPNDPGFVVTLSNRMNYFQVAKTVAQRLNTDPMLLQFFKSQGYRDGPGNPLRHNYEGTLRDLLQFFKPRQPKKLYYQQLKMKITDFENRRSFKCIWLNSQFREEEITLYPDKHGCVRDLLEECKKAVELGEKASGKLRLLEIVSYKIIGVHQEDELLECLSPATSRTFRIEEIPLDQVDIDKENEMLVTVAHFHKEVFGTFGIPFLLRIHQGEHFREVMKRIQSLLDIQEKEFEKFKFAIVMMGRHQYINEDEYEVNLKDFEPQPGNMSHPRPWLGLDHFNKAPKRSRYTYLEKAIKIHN

[3] = molecular target: DUBs and other proteins in HEK293 cells (Homo sapiens, UniProt P51784); conditions: replicates A-C; for Log2 reporter intensity values: USP11: competition with ABP 2, DMSO substract (FC); for Log2 reporter intensity values: USP11, DMSO subtracted
Sequence of DUBs and other proteins in HEK293 cells (Homo sapiens, UniProt P51784) (P51784 whole entry): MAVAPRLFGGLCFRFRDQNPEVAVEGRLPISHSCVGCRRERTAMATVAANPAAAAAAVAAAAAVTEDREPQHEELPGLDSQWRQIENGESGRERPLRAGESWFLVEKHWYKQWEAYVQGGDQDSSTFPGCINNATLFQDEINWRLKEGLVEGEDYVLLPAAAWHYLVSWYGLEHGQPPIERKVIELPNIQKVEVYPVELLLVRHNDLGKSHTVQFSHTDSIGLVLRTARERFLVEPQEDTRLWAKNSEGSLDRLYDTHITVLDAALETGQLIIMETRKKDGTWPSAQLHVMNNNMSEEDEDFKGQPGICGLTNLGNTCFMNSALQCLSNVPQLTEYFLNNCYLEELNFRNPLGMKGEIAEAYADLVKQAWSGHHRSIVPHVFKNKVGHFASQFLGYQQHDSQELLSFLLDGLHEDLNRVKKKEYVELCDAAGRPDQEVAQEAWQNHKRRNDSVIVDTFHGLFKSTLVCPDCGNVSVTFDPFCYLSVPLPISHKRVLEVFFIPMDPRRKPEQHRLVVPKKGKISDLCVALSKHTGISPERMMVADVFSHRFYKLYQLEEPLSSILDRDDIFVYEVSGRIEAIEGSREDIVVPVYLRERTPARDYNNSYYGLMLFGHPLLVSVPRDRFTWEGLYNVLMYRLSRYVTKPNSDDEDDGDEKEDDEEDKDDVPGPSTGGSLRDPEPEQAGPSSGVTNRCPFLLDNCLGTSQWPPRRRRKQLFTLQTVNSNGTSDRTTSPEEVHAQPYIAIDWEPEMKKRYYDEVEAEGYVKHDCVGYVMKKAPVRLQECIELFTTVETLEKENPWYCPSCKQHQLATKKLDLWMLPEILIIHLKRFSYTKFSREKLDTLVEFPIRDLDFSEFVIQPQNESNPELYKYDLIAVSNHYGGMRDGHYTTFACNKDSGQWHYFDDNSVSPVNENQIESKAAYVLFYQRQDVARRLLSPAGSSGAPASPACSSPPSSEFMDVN

[4] = molecular target: DUBs and other proteins in HEK293 cells (Homo sapiens, UniProt Q96FW1); conditions: replicates A-C; for Log2 reporter intensity values: OTUB1: competition with ABP 2, DMSO substract (FC); for Log2 reporter intensity values: OTUB1, DMSO subtracted
Sequence of DUBs and other proteins in HEK293 cells (Homo sapiens, UniProt Q96FW1) (Q96FW1 whole entry): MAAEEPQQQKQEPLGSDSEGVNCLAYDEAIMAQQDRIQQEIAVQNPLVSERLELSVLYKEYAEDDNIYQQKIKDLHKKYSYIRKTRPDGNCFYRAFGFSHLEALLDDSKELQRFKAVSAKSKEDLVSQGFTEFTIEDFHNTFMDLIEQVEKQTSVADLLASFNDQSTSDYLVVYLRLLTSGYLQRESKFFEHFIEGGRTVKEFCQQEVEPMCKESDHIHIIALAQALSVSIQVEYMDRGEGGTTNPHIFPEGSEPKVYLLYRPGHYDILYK

[5] = molecular target: T2, DUBs and other proteins in HEK293 cells (Homo sapiens, UniProt P45974); conditions: replicates A-C; for Log2 reporter intensity values: USP5: competition with ABP 2, DMSO substract (FC); for Log2 reporter intensity values: USP5, DMSO subtracted
T2 sequence (P45974 1-858): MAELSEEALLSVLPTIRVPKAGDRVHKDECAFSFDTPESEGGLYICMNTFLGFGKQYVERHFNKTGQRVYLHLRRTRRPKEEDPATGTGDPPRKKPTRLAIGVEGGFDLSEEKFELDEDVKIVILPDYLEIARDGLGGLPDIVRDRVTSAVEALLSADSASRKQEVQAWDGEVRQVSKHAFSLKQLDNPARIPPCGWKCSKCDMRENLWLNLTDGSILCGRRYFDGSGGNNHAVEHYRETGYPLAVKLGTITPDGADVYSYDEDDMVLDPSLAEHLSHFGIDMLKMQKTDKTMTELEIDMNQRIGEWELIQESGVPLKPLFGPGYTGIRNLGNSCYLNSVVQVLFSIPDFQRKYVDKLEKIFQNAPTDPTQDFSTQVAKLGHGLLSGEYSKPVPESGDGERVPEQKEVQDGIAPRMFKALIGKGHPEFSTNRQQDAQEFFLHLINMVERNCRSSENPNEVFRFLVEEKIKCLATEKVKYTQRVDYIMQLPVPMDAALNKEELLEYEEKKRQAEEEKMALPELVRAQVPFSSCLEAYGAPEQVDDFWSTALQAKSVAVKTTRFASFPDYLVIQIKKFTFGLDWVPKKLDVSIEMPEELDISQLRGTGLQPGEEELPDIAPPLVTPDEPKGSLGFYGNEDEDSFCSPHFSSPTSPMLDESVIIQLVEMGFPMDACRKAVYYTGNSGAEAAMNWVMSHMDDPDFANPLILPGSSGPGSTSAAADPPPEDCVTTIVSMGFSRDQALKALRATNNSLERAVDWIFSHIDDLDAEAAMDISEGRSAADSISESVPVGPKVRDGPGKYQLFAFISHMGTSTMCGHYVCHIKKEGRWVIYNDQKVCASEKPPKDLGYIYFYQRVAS

[6] = molecular target: DUBs and other proteins in HEK293 cells (Homo sapiens, UniProt O15372); conditions: for Log2 reporter intensity values, EIF3H: TMT replicates; for Log2 reporter intensity values / Log2 reporter intensity values: EIF3H: replicates A-C; for Log2 reporter intensity values: EIF3H: competition with ABP 2, DMSO substract (FC)
Sequence of DUBs and other proteins in HEK293 cells (Homo sapiens, UniProt O15372) (O15372 whole entry): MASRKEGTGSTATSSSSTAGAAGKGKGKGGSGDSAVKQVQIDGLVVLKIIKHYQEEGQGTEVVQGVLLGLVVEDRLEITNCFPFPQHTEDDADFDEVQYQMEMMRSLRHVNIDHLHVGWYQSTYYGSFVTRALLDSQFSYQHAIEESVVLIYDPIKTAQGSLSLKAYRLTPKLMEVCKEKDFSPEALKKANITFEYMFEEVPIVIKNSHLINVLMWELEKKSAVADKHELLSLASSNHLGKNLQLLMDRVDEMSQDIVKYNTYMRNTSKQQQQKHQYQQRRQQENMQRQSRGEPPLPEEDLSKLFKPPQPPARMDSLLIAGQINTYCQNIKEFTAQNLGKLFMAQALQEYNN

[7] = molecular target: DUBs and other proteins in HEK293 cells (Homo sapiens, UniProt Q9UPU5); conditions: replicates A-C; for Log2 reporter intensity values: USP24: competition with ABP 2, DMSO substract (FC); for Log2 reporter intensity values: USP24, DMSO subtracted

With `CC(=O)O/N=C1\C(=O)N(Cc2cc(Cl)ccc2Cl)c2ccc(Cl)cc21` [LDN] the “Log2 reporter intensity values: USP39” value ([1]; LDN at 5 μM) was 1.029 and 1.043 and 0.9785, the “Log2 reporter intensity values: USP39” value ([1]; LDN at 25 μM) was 1.07 and 1.069 and 1.033 and the “Log2 reporter intensity values” ([1]; LDN at 5 μM) was 0.04123 and 0.06024 and -0.03137. For the same molecule, the “Log2 reporter intensity values” ([1]; LDN at 25 μM) was 0.09762 and 0.09571 and 0.04713, the “Log2 reporter intensity values” ([1]; LDN_5 μM) was 0.02838 and 0.04203 and -0.02212 and the “Log2 reporter intensity values” ([1]; LDN_25 μM) was 0.0694 and 0.06798 and 0.0326. For the same molecule, the “Log2 reporter intensity values: USP7” value ([2]; LDN at 5 μM) was 1.02 and 1.001 and 1.029, the “Log2 reporter intensity values: USP7” value ([2]; LDN at 25 μM) was 0.9945 and 1.07 and 1.065 and the “Log2 reporter intensity values” ([2]; LDN at 5 μM) was 0.02794 and 0.001316 and 0.0413. For the same molecule, the “Log2 reporter intensity values” ([2]; LDN at 25 μM) was -0.007921 and 0.09748 and 0.09021, the “Log2 reporter intensity values” ([2]; LDN_5 μM) was 0.01927 and 0.0006308 and 0.02876 and the “Log2 reporter intensity values” ([2]; LDN_25 μM) was -0.005757 and 0.06962 and 0.06425. The “Log2 reporter intensity values: USP11” value ([3]; LDN at 5 μM) was 1.03 and 1.059 and 1.019, the “Log2 reporter intensity values: USP11” value ([3]; LDN at 25 μM) was 1.058 and 0.9885 and 1.048 and the “Log2 reporter intensity values” ([3]; LDN at 5 μM) was 0.04194 and 0.08295 and 0.02661. The “Log2 reporter intensity values” ([3]; LDN at 25 μM) was 0.082 and -0.01664 and 0.06827, the “Log2 reporter intensity values” ([3]; LDN_5 μM) was 0.02916 and 0.05885 and 0.01828 and the “Log2 reporter intensity values” ([3]; LDN_25 μM) was 0.05815 and -0.0118 and 0.04812. For the same molecule, the “Log2 reporter intensity values: OTUB1” value ([4]; LDN at 5 μM) was 1.034 and 1.042 and 1.019, the “Log2 reporter intensity values: OTUB1” value ([4]; LDN at 25 μM) was 1.066 and 0.9796 and 1.019 and the “Log2 reporter intensity values” ([4]; LDN at 5 μM) was 0.04805 and 0.05934 and 0.02777. For the same molecule, the “Log2 reporter intensity values” ([4]; LDN at 25 μM) was 0.09269 and -0.02973 and 0.02677, the “Log2 reporter intensity values” ([4]; LDN_5 μM) was 0.03375 and 0.04187 and 0.01932 and the “Log2 reporter intensity values” ([4]; LDN_25 μM) was 0.06623 and -0.02052 and 0.01861. For the same molecule, the “Log2 reporter intensity values: USP5” value ([5]; LDN at 5 μM) was 1.037 and 0.9788 and 0.9532, the “Log2 reporter intensity values: USP5” value ([5]; LDN at 25 μM) was 1.021 and 0.9648 and 0.9864 and the “Log2 reporter intensity values” ([5]; LDN at 5 μM) was 0.05306 and -0.03094 and -0.06922. For the same molecule, the “Log2 reporter intensity values” ([5]; LDN at 25 μM) was 0.02936 and -0.0517 and -0.01971, the “Log2 reporter intensity values” ([5]; LDN_5 μM) was 0.03714 and -0.02154 and -0.04717 and the “Log2 reporter intensity values” ([5]; LDN_25 μM) was 0.02024 and -0.03553 and -0.01389. The “Log2 reporter intensity values, EIF3H” value ([6]; 5 μM LDN-57444 (60 min) + 20 nM ABP 2 (10 min), All values) was 0.06362 and 0.03651 and 0.05305, the “Log2 reporter intensity values, EIF3H” value ([6]; 5 μM LDN-57444 (60 min) + 20 nM ABP 2 (10 min), DMSO subtracted) was 0.03403 and 0.006918 and 0.02346 and the “Log2 reporter intensity values, EIF3H” value ([6]; 25 μM LDN-57444 (60 min) + 20 nM ABP 2 (10 min), All values) was 0.05041 and 0.03867 and 0.01604. The “Log2 reporter intensity values, EIF3H” value ([6]; 25 μM LDN-57444 (60 min) + 20 nM ABP 2 (10 min), DMSO subtracted) was 0.02082 and 0.009076 and -0.01355, the “Log2 t-test Difference” value ([6]; EIF3H, LDN - 5 μM) was 0.02512 and the “Log2 reporter intensity values” ([6]; EIF3H, LDN at 5 μM, DMSO subtracted) was 0.03403 and 0.006918 and 0.02346. The “Log2 reporter intensity values” ([6]; EIF3H, LDN at 25 μM, DMSO subtracted) was 0.02082 and 0.009076 and -0.01355, the “Log2 reporter intensity values” ([6]; EIF3H, LDN_5 μM, DMSO subtracted) was 0.02373 and 0.004663 and 0.01625 and the “Log2 reporter intensity values” ([6]; EIF3H, LDN_25 μM, DMSO subtracted) was 0.01439 and 0.006167 and -0.009494. For the same molecule, the “Log2 reporter intensity values: EIF3H” value ([6]; LDN at 5 μM) was 1.024 and 1.005 and 1.016, the “Log2 reporter intensity values: EIF3H” value ([6]; LDN at 25 μM) was 1.015 and 1.006 and 0.9907 and the “Log2 reporter intensity values: USP24” value ([7]; LDN at 5 μM) was 0.8375 and 1.105 and 1.062. The “Log2 reporter intensity values: USP24” value ([7]; LDN at 25 μM) was 1.15 and 1.015 and 1.054, the “Log2 reporter intensity values” ([7]; LDN at 5 μM) was -0.2559 and 0.1441 and 0.08741 and the “Log2 reporter intensity values” ([7]; LDN at 25 μM) was 0.2018 and 0.02211 and 0.07566. The “Log2 reporter intensity values” ([7]; LDN_5 μM) was -0.1659 and 0.1016 and 0.0591 and the “Log2 reporter intensity values” ([7]; LDN_25 μM) was 0.1468 and 0.01208 and 0.05048.
